The subject of series [1] is mAb1. In words: mAb1 AAPH stress study, RP-HPLC. The format is physicochemical, human. The following applies: for Fab (Trp residue) oxidation: mAb1 with AAPH for 24 hours at 40° C., antioxidants at 1 mM or none. As for the experimental part: (§1) The fragments were reduced with DTT, and then separated and identified via Liquid Chromatography-Mass Spectrometry (LC-MS). […] Comparison of area integrated under the oxidized and native peaks was used to quantify HC Fab and Fc oxidation. […] By using the papain digest RP-HPLC method in the present study it was possible to investigate Trp residue oxidation by quantifying HC Fab oxidation, and Met residue oxidation by quantifying HC Fc oxidation.
Antioxidants were added at 1 mM. […] After buffer exchange, each solution was prepared for analysis by reverse-phase HPLC as described above.

Series [2] is described as follows: Cyclic voltammetry (CV) screening assay, oxidation potential. Format: physicochemical. On the procedure:
The oxidation/reduction characteristics of the compounds were investigated. Several compounds, including L-Trp and derivatives, were evaluated for the protection of Trp oxidation in proteins using cyclic voltammetry (CV) and rank ordered based on their oxidation potentials (Table 2). Specifically, the candidate antioxidants were dissolved in deionized water and then added to a 0.2 M lithium perchlorate electrolyte solution. […] Solutions were scanned from −0.10 V to +1.50 V at a scan rate of either 100 or 500 mV/sec. The analytical cell was purged for four minutes with nitrogen before scanning of each antioxidant solution. The input was a linear scan of the potential of a working electrode, and the output was measurement of the resulting current. […] Redox reactions were characterized by sharp increases or decreases in current (peaks). The potential at which an oxidation reaction occurred was referred to as the anodic peak potential (or oxidation potential), and the potential at which a reduction occurred was referred to as is the cathodic peak (or reduction) potential.

For series [3], the system named is mAb1. The series can be described thus: mAb1 light stress study (16 hours at 250 W/m^2), RP-HPLC. Format: physicochemical, human. The settings on record: 16 hours of light at 250 W/m^2; for Light-induced Fab oxidation, effect in words / Light-induced Fc oxidation, effect in words: excipient 1 mM; for Fab oxidation increase over the control level (mAb1 Ref Mat): excipient 1 mM or none; for Light-induced Fc oxidation, effect in words: compared to no excipient. As for the experimental part:
as §1
Antioxidants were added at 1 mM. Glass vials containing these formulations were exposed to 250 W/m^2 light in an Atlas SunTest CPS+ Xenon Test Instrument (Chicago, Ill.). Control vials were wrapped in aluminum foil and treated similarly. After light exposure, solutions were prepared for analysis by reverse-phase HPLC as described above.

Series [4] is described as follows: Photosensitivity screening assay (H2O2 by Amplex Ultra Red after light exposure). Format: physicochemical. As for the experimental part: As a screening tool, antioxidant candidates were exposed to light for four hours at 250 W/m^2 and the resulting H2O2 formation was quantified by the Amplexassay. Specifically, antioxidants were prepared to 1 mM in 20 mM histidine acetate buffer at pH 5.5. The 1 mM antioxidant solutions were aliquoted into glass vials (2 mL/glass vial) and exposed to four hours of light at 250 W/m^2 in an Atlas SunTest CPS+ Xenon Test Instrument (Chicago, Ill.). Total UV dose was 90 watt-hours/square meter and total visible dose was 0.22 million lux hours over the 4-hour period. Control vials were wrapped in aluminum foil and treated similarly. The amount of hydrogen peroxide generated after exposure to light was measured using the Amplex® Ultra Red Assay (Invitrogen, Carlsbad, Calif.) following the manufacturer's recommended procedure. On addition of horseradish peroxidase (HRP), the dye reacted 1:1 stoichiometrically with H2O2, resulting in the production of fluorescent oxidation product resorufin. In this study, fluorescence readings were obtained using a Spectra Max M2 Micro-plate Reader (Molecular Devices, Sunnyvale, Calif.) with excitation and emission set at 560 nm and 590 nm, respectively. Final H2O2 concentrations were determined using a standard curve ranging from 0 μm to 20 μm.

Series [5] concerns mAb1. The series can be described thus: Light stress of mAb1 formulation (eight hours at 250 W/m^2), papain digest RP-HPLC. The following applies: for Fc oxidation, effect in words: no excipient, or 10, 25, 50 and 100 mM L-Met added to 1 mM L-Trp. The format is physicochemical, human. As for the experimental part:
L-tryptophan (L-Trp), an antioxidant used in protein formulations, has been recently shown to be photosensitive (Igarashi et al., Anal Sci 23(8):943-8 (2007)) and to have the ability to produce H2O2 upon light exposure. […] Control vials were wrapped in aluminum foil and treated similarly. After light exposure, solutions were prepared for analysis by reverse-phase HPLC. […] Following incubation, 900 μL of the solution was combined with 100 μL of 1 M dithiothreitol (DTT) and incubated for another thirty minutes at 37° C. Samples were then run on an Agilent, Inc. 1100/1200 HPLC system (Santa Clara, Calif.) equipped with UV detection at 280 nm in conjunction with a Varian, Inc. Pursuit 3 μm, 2 mm ID×250 mm diphenyl column (Palo Alto, Calif.). Mobile Phase A was 0.1% TFA in water. Mobile Phase B was 0.1% TFA in acetonitrile. The mobile phase gradient increased linearly from 34% B at 0 minutes to 43% B at 50.0 minutes, then to 95% B at 50.1 minutes. The gradient remained at 95% B until 60.1 minutes, and then decreased linearly from 95% B to 34% B between 60.1 and 60.2 minutes. The gradient remained at 34% B until the end of the cycle at 80.2 minutes. The column temperature was 65° C., total flow rate was 0.2 mL/min, and injection volume of each sample was 6 μL. Chromatograms were then integrated for quantification of oxidation.

Series [6] relates to mAb1. The series can be described thus: mAb1 Fenton stress study (H2O2 + Fe), RP-HPLC. Format: physicochemical, human. The settings on record: 10 ppm H2O2 and 0.2 mM Fe(III), 40° C. for 3 hours; no excipient. On the procedure: Antioxidants were added at a final concentration of 1 mM. […] After incubation, each reaction was quenched by addition of 100 mM L-Met and then prepared for analysis by reverse-phase HPLC as described above.
The Fenton reaction, using a mixture of H2O2 and Fe ions, generates oxidation through a metal catalyzed, hydroxyl radical reaction (Prousek et al., Pure and Applied Chemistry 79(12):2325-2338 (2007)). This reaction generated Fab, i.e. tryptophan, oxidation in mAb1. The reaction was also carried out in the presence of select antioxidants that were useful against both AAPH and light induced oxidation as reported above. Data related to the antioxidant properties against Fenton mediated reaction were analyzed using the RP-HPLC assay as described above. The Fenton reaction used 10 ppm of H2O2 and 0.2 mM of Fe(III). The reaction was incubated at 40° C. for 3 hours, quenched with 100 mM L-Met and analyzed using RP-HPLC after papain digest. All samples were the average of three separate vials, and mAb1 control (Ref Mat) was one vial with five independent injections on the HPLC. […] In regards to protection against Fc oxidation, the tested excipients (other than salicylic acid) performed slightly better than L-Trp.

Where [7] appears, read: anodic peak potential, glassy carbon working electrode, 0.2M lithium perchlorate.
The mark [8] stands for this setting: 1 mM in 20 mM histidine acetate pH 5.5, four hours of light at 250 W/m^2.
The mark [9] stands for this setting: eight hours of light at 250 W/m^2.

Consider 10 compounds from US11596620B2, “Formulations with reduced oxidation” (Genentech, Inc., priority 2013, dated 2023).

In the case of `N[C@@H](Cc1c[nH]c2ccc(O)cc12)C(=O)O` [5-Hydroxy-L-Trp, 5-hydroxy-L-tryptophan], in the series with mAb1 [1], the “Fab (Trp residue) oxidation” value is “about 2%”. Further, in series [2] (setting [7]), the “Oxidation Potential” value is 0.565 V vs Ag/AgCl. For the same compound, in the series with mAb1 [3], the “Light-induced Fab oxidation, effect in words” value (“Light-induced Fab oxidation” for short) is “near control levels”. Besides, in series [4] (setting [8]), the “(H2O2 produced by Compound)/(H2O2 produced by L-Trp)” value was 0.09 and the “H2O2 produced compared to L-Trp, in words” value is “about one tenth”.

With `Oc1ccc2[nH]ccc2c1` [5-Hydroxyindole], the “Fab (Trp residue) oxidation” value in the series with mAb1 [1] is on record as “about 2%”. The “Oxidation Potential” value in series [2] (setting [7]) was 0.580 V vs Ag/AgCl. In addition, the “Light-induced Fab oxidation” value with mAb1 [3] is “near control levels”. The “(H2O2 produced by Compound)/(H2O2 produced by L-Trp)” value in series [4] (setting [8]) is reported as −0.08.

For the compound `Oc1cccc2cc[nH]c12` [7-Hydroxyindole], in the series on mAb1 [1], the “Fab (Trp residue) oxidation” value is on record as “about 2%”. Moreover, in the series on mAb1 [3], the “Light-induced Fab oxidation” value is listed as “near control levels”. The “(H2O2 produced by Compound)/(H2O2 produced by L-Trp)” value in series [4] (setting [8]) is −0.03.

Consider `CSCC[C@H](N)C(=O)O` [L-Met, L-methionine], for which the “Fab oxidation, effect in words” value in the series on mAb1 [5] (10, 25, 50, and 100 mM L-Met added to formulation containing 1 mM L-Trp, eight hours of light) is reported as “appeared to reduce Fab oxidation slightly”. Also, the “Fc oxidation, effect in words” value in the series on mAb1 [5] (setting [9]) is “reduced the amount of Fc oxidation”.

Take `NC(=O)[C@@H](N)Cc1c[nH]c2ccccc12` [L-Trpamide, L-tryptophanamide]: the “Oxidation Potential” value in series [2] (setting [7]) amounted to 1.015 V vs Ag/AgCl. The “Oxidation potential relative to L-Trp, in words” value in series [2] (cyclic voltammetry) was “higher oxidation potential than L-Trp”. In the series with mAb1 [3], the “Fab oxidation increase over the control level (mAb1 Ref Mat)” value (“Fab oxidation increase” below) came to 8 fold and the “Light-induced Fc oxidation, effect in words” value is listed as “more Fc oxidation”. Also, the “(H2O2 produced by Compound)/(H2O2 produced by L-Trp)” value in series [4] (setting [8]) worked out at 0.43.

Turning to `CC(=O)N[C@@H](Cc1c[nH]c2ccccc12)C(=O)O` [N-Acetyl-L-Trp, N-acetyl-L-tryptophan], the “Oxidation Potential” value in series [2] (setting [7]) amounted to 0.875 V vs Ag/AgCl. In series [4] (setting [8]), the “(H2O2 produced by Compound)/(H2O2 produced by L-Trp)” value was 0.31.

`O=C(O)c1ccccc1O` [Salicylic Acid]: the “AAPH-induced Fab oxidation, effect in words” value with mAb1 [1] (excipient 1 mM, AAPH 24 hours at 40° C.) is “almost no effect”. For the same compound, in series [2] (setting [7]), the “Oxidation Potential” value is 1.080 V vs Ag/AgCl. In series [2] (cyclic voltammetry), the “Oxidation potential relative to L-Trp, in words” value is “higher oxidation potential than L-Trp”. The “Oxidation Potential” value in series [2] (cyclic voltammetry, 0.2 M lithium perchlorate) is reported as 1.080 V vs Ag/AgCl. Further, in the series with mAb1 [3], the “Fab oxidation increase” value is given as 8 fold and the “Light-induced Fc oxidation, effect in words” value is “more Fc oxidation”. For the same compound, in series [4] (pH 5.5), the “(H2O2 produced by Compound)/(H2O2 produced by L-Trp)” value came out at 0.03 and the “H2O2 produced compared to L-Trp, in words” value was “very little H2O2”.

As for `NCCc1c[nH]c2ccc(O)cc12` [Serotonin (5-Hydroxytryptamine), 5-Hydroxytryptamine], the “Fab (Trp residue) oxidation” value in the series on mAb1 [1] is listed as “about 2%”. For the same compound, in series [2] (setting [7]), the “Oxidation Potential” value is given as 0.600 V vs Ag/AgCl. The “Light-induced Fab oxidation” value in the series on mAb1 [3] is “near control levels”. In addition, in series [4] (setting [8]), the “(H2O2 produced by Compound)/(H2O2 produced by L-Trp)” value turned out to be 0.03 and the “H2O2 produced compared to L-Trp, in words” value was “very little H2O2”.

On to `NCCc1c[nH]c2ccccc12` [Tryptamine], for which the “Oxidation Potential” value in series [2] (setting [7]) is recorded as 1.010 V vs Ag/AgCl. The “Oxidation potential relative to L-Trp, in words” value in series [2] (cyclic voltammetry) is recorded as “higher oxidation potential than L-Trp”. For the same compound, in series [4] (setting [8]), the “(H2O2 produced by Compound)/(H2O2 produced by L-Trp)” value amounted to 0.53 and the “H2O2 produced compared to L-Trp, in words” value was “about half as much H2O2”. In series [4] (1 mM in 20 mM histidine acetate pH 5.5, four hours of light at 250 W/m^2, listed as tryptamine), the “H2O2 produced compared to L-Trp, in words” value is “two times less”.

In the case of drozitumab [mAb1], in the series on mAb1 [5] (setting [9]), the “Fc oxidation, effect in words” value is given as “only a minor increase in Fc oxidation”. In the series on mAb1 [5] (mAb1 5 mg/mL, eight hours of light at 250 W/m^2, no excipient or 1 mM L-Trp, reference material and foil control about 2%), this compound returned a Fab oxidation of 4%. In the series on mAb1 [3], the “Fab oxidation increase” value was 3.5 fold. For the same compound, in the series with mAb1 [3] (no excipient), the “Increase in Fc oxidation over the control level” value was determined as 40%. For the same compound, the “Oxidation in the Fab region over the control” value in the series with mAb1 [6] is “about four times”.
